The results in this text go back to EP1421935A1 (Casini, Angela, priority 2002, dated 2004).

Series [1] concerns the target T1, bCA IV (Bos taurus, UniProt Q95323).
T1 sequence (Q95323 19-284): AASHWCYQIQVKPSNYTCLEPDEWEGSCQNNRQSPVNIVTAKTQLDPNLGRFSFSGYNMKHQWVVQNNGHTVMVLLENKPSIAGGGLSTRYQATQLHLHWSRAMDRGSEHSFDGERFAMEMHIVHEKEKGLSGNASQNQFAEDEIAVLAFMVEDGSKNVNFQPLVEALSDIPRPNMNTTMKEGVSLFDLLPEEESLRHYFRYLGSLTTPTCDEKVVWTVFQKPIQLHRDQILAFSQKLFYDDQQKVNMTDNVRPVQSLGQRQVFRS
The experiment in a line: CA inhibition, esterase method (4-nitrophenylacetate hydrolysis).
Method: (§1) Stock solutions of inhibitor (1 mM) are prepared in distilled-deionized water with 10-20% (v/v) DMSO (which is not inhibitory at these concentrations) and dilutions up to 0.01 nM are done thereafter with distilled-deionized water. Inhibitor and enzyme solutions are preincubated together for 10 min at room temperature prior to assay, in order to allow for the formation of the E-I complex.

In series [2] the target is hCA I (Homo sapiens, UniProt P00915). Described as above.
Method: as §1
The target in series [3] is hCA II (Homo sapiens, UniProt P00918). The description is as above.
Method: as §1
Series [4] in a line: transcorneal penetration of drugs (in vitro corneal permeability). Conditions: rate constant of transfer across excised rabbit cornea, pH 7.4.
Method: The determination of transcorneal penetration of drugs is performed as follows. […] Excised rabbit corneas with either intact or denuded epithelium are used in these experiments. The pH is 7.4 and exposed area is 1.2 cm^2. Concentrations of drug of 40 - 2000 µM are placed in the epithelial chamber and samples of fluid are collected from the endothelial chamber at different intervals, up to 4 hr.

Like-named read-outs stand apart in the source and are kept apart here.

Sequence of hCA I (P00915 whole entry): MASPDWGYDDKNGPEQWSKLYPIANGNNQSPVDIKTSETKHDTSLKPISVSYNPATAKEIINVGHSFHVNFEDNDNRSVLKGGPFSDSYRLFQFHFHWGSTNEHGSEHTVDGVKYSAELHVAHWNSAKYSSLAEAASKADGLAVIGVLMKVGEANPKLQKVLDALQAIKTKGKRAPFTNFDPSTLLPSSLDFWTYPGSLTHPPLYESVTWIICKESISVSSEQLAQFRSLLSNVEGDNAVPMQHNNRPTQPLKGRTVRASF

One may read the Ki as a measure of affinity in units of concentration, obtained from inhibition or displacement. Consider `NS(=O)(=O)c1ccc(CNC(=S)NC(CCC(=O)O)C(=O)O)cc1` (stereo not drawn) [B29], for which the Ki in series [1] came to 23 nM; in series [2], 39 nM; in series [3], 10 nM.

As for `NS(=O)(=O)c1ccc(CNC(=S)NC(Cc2ccc(O)cc2)C(=O)O)cc1` (stereo not drawn) [B34], the Ki in series [1] came out at 9 nM; in series [2], 24 nM; in series [3] it was 3 nM.

For `NS(=O)(=O)c1ccc(CNC(=S)N2CCCC2C(=O)NCC(=O)NCC(=O)O)cc1` (stereo not drawn) [B46], the results for the Ki in series [1], in series [2] and in series [3] were 8 nM, 22 nM and 3 nM, respectively.

Take `NC(=O)CCC(NC(=S)NCc1ccc(S(N)(=O)=O)cc1)C(=O)O` (stereo not drawn) [B30]: the Ki in series [1] was determined as 21 nM; in series [2], 36 nM; in series [3] it was 9 nM.

Take `NCCCCC(NC(=S)NCc1ccc(S(N)(=O)=O)cc1)C(=O)O` (stereo not drawn) [B37]: the Ki came to 34 nM in series [1], 73 nM in series [2] and 10 nM in series [3].

In the case of `CC(O)C(NC(=S)NCc1ccc(S(N)(=O)=O)cc1)C(=O)O` (stereo not drawn) [B21], the Ki worked out at 13 nM in series [1], 24 nM in series [2] and 2 nM in series [3].

For `NS(=O)(=O)c1ccc(CNC(=S)NCC(=O)NCC(=O)O)cc1` [B39], the Ki was determined as 26 nM in series [1], 50 nM in series [2] and 13 nM in series [3].

For `NS(=O)(=O)c1ccc(CNC(=S)NC(CC(=O)O)C(=O)NC(CC(=O)O)C(=O)O)cc1` (stereo not drawn) [B45], the values for the inhibitory constant (Ki) in series [1], in series [2] and in series [3] were 25 nM, 37 nM and 12 nM, respectively.

`NS(=O)(=O)c1ccc(CNC(=S)NC(Cc2cnc[nH]2)C(=O)NCC(=O)O)cc1` (stereo not drawn) [B41]: the Ki in series [1] was 5 nM; in series [2], 12 nM; in series [3], 1 nM.

Consider `CCC(C)C(NC(=S)NCc1ccc(S(N)(=O)=O)cc1)C(=O)O` (stereo not drawn) [B26, 1-(4-Sulfamoylphenylmethyl)-3-(1-carboxy-2-methyl-butyl)-thiourea], for which the Ki amounted to 8 nM in series [1], 18 nM in series [2] and 4 nM in series [3].

Take `NS(=O)(=O)c1ccc(CNC(=S)N2CCCC2C(=O)O)cc1` (stereo not drawn) [B31]: the Ki amounted to 55 nM in series [1], 89 nM in series [2] and 21 nM in series [3].

As for `CC(NC(=S)NCc1ccc(S(N)(=O)=O)cc1)C(=O)NC(Cc1ccccc1)C(=O)O` (stereo not drawn) [B43], the values for the Ki in series [1], in series [2] and in series [3] were 10 nM, 21 nM and 3 nM, respectively.

For `NS(=O)(=O)c1ccc(CNC(=S)NC(Cc2ccc(O)c(O)c2)C(=O)O)cc1` (stereo not drawn) [B35], the Ki was determined as 14 nM in series [1], 30 nM in series [2] and 6 nM in series [3].

Take `NS(=O)(=O)c1ccc(CNC(=S)NC(CC(=O)O)C(=O)NC(CC(=O)O)C(=O)NC(CC(=O)O)C(=O)NC(CC(=O)O)C(=O)O)cc1` (stereo not drawn) [B47]: the figures for the Ki in series [1], in series [2] and in series [3] were 24 nM, 51 nM and 9 nM, respectively.

With `NS(=O)(=O)c1ccc(CNC(=S)NCCc2ccccn2)cc1` [B8], the Ki in series [1] was 75 nM; in series [2], 120 nM; in series [3], 38 nM.

As to `NS(=O)(=O)c1ccc(CNC(=S)NC(CC(=O)O)C(=O)O)cc1` (stereo not drawn) [B27], the Ki in series [1] is 15 nM; in series [2], 27 nM; in series [3], 7 nM.

On to `CSCCC(NC(=S)NCc1ccc(S(N)(=O)=O)cc1)C(=O)O` (stereo not drawn) [B23], for which the Ki stood at 10 nM in series [1], 19 nM in series [2] and 3 nM in series [3].

Consider `NS(=O)(=O)c1ccc(CNC(=S)NC(Cc2ccccc2)C(=O)O)cc1` (stereo not drawn) [B33, 1-(4-Sulfamoylphenylmethyl)-3-(1-carboxy-2-phenyl-ethyl)-thiourea], for which the Ki in series [1] stood at 14 nM; in series [2], 27 nM; in series [3], 5 nM.

Consider `NS(=O)(=O)c1ccc(CNC(=S)NCc2ccccn2)cc1` [B7], for which the Ki in series [1] came out at 74 nM; in series [2] it was 124 nM; in series [3], 43 nM.

For `CC(=O)Nc1nnc(S(N)(=O)=O)s1` [Acetazolamide, acetazolamide, reference compound], the “kin x 10^3 (hr^-1) No epithelium” value in series [4] (denuded epithelium) came out at 7.0 hr^-1. Besides, the “kin x 10^3 (hr^-1) Cornea intact” value in series [4] (intact epithelium) was determined as 0.37 hr^-1.

For the molecule `NS(=O)(=O)c1ccc(CNC(=S)NC(Cc2cnc[nH]2)C(=O)NC(Cc2ccccc2)C(=O)O)cc1` (stereo not drawn) [B42], the inhibition constant (Ki) in series [1] came to 7 nM; in series [2], 19 nM; in series [3] it was 2 nM.

Consider `NS(=O)(=O)c1ccc(CNC(=S)NC(Cc2c[nH]c3ccccc23)C(=O)O)cc1` (stereo not drawn) [B36], for which the Ki in series [1] is 17 nM; in series [2], 42 nM; in series [3], 9 nM.

`CC(C)CC(NC(=S)NCc1ccc(S(N)(=O)=O)cc1)C(=O)O` (stereo not drawn) [B25]: the figures for the Ki in series [1], in series [2] and in series [3] were 11 nM, 17 nM and 3 nM, respectively.

Turning to `NS(=O)(=O)c1ccc(CNC(=S)NCCc2ccccc2)cc1` [B9], the Ki in series [1] was found to be 76 nM; in series [2], 126 nM; in series [3], 39 nM.

`N=C(N)NCCCC(NC(=S)NCc1ccc(S(N)(=O)=O)cc1)C(=O)O` (stereo not drawn) [B38]: the Ki turned out to be 56 nM in series [1], 103 nM in series [2] and 18 nM in series [3].

Turning to `CC(C)CC(NC(=S)NCc1ccc(S(N)(=O)=O)cc1)C(=O)NCC(=O)O` (stereo not drawn) [B44], the Ki in series [1] was 11 nM; in series [2] it was 20 nM; in series [3], 4 nM.

As to `NS(=O)(=O)c1ccc(CN=C=S)cc1` [B, 4-isothiocyanatomethyl-benzenesulfonamide], the Ki is 270 nM in series [1], 4300 nM in series [2] and 162 nM in series [3].

With `NS(=O)(=O)c1ccc(CNC(=S)NCCCC(=O)O)cc1` [B17], the inhibition constant (Ki) was found to be 27 nM in series [1], 40 nM in series [2] and 10 nM in series [3].

Take `CC(NC(=S)NCc1ccc(S(N)(=O)=O)cc1)C(=O)O` (stereo not drawn) [B15]: the Ki in series [1] worked out at 29 nM; in series [2], 48 nM; in series [3], 10 nM.

As for `NS(=O)(=O)c1ccc(CNC(=S)NCCc2c[nH]cn2)cc1` [B10, 1-(4-Sulfamoylphenylmethyl)-3-[(1H-imidazol)-4-yl-ethyl]-thiourea], the Ki in series [1] is 52 nM; in series [2], 88 nM; in series [3], 30 nM.

For `NS(=O)(=O)c1ccc(CNC(=S)NC(Cc2cnc[nH]2)C(=O)O)cc1` (stereo not drawn) [B32], the inhibition constant (Ki) came out at 14 nM in series [1], 33 nM in series [2] and 6 nM in series [3].

Regarding `NS(=O)(=O)c1cc(Cl)c(Cl)c(S(N)(=O)=O)c1` [Dichlorophenamide 6, dichlorophenamide, reference compound], the Ki in series [1] (read-out: KI (nM) bCA IV, From bovine lung microsomes, by the esterase method, pH 7.40, 25°C) was found to be 380 nM.

For `CC(C)C(NC(=S)NCc1ccc(S(N)(=O)=O)cc1)C(=O)O` (stereo not drawn) [B24], the figures for the Ki in series [1], in series [2] and in series [3] were 9 nM, 20 nM and 4 nM, respectively.

For `NS(=O)(=O)c1ccc(CNC(=S)NCCC(=O)O)cc1` [B16], the Ki in series [1] was found to be 28 nM; in series [2], 39 nM; in series [3], 8 nM.

For the molecule `NS(=O)(=O)c1ccc(CNC(=S)NCC(=O)O)cc1` [B14, 1-(4-Sulfamoylphenylmethyl)-3-(carboxymethyl)-thiourea], the Ki in series [1] was determined as 34 nM; in series [2] it was 56 nM; in series [3], 17 nM.
